In patent US20220184164A1, “PREPARATIONS CONTAINING BERRY EXTRACTS FOR USE IN THE PROPHYLAXIS AND/OR TREATMENT OF VIRAL INFECTIONS CAUSED BY HERPESVIRIDAE” (Evonik Operations GmbH, priority 2019, published 2022):

Tests used:
HSV-1 = test: Anti-viral assay: GFP-encoding HSV-1 infection of pre-treated BHK cells, infected cells counted; format: cell-based, herpes simplex virus 1
Procedure: (§1) BHK cells were incubated with decreasing concentration of the solubilized test compounds for approx. 1 h. All concentrations were analyzed by six independent replicates on a black 96-well plate (PerkinElmer). Cells were infected with GFP-encoding wildtype HSV-1 virus and incubated for two days. Two days after infection, HSV-1-infected cells and GFP expressing cells were directly counted using the PerkinElmer Ensight system with optical cell culture plates. The instrument was controlled by […]. Anti-viral assays for HHV8 and mCMV were performed accordingly.
The cells were subsequently infected with GFP-encoding HSV at a multiplicity of infection of 2.5, and infected GFP-expressing cells were counted one day after infection using the PerkinElmer Ensight system. […] Thus, the sugar is not required as potential co-factor for drug uptake.

HHV-8 = test: Anti-viral assay: GFP-encoding HHV-8 infection, infected cells counted; format: cell-based, Herpes virus 8
Procedure: as §1
The concentrations of materials were again adjusted to the same levels of anthocyanins (except the single berry extracts). No treatment or only maltodextrin served as controls. The cells were subsequently infected with GFP-encoding HHV-8, and infected GFP-expressing cells were counted two days after infection using the PerkinElmer Ensight system.

[1] = tested on: HSV-1 related intracellular β-Amyloid deposition in SH-SY5Y (neuroblastoma) cells; test: β-Amyloid assay: intracellular deposition of β-Amyloid in HHV-1-infected SH-SY5Y cells (immunofluorescence, qualitative); format: cell-based; settings: 500, 250 and 125 μg/ml
Procedure: Samples were fixed using Histofix and permeabilized with 0.05% Triton X-100 in phosphate-buffered saline for 5 min. Blocking steps were performed with 3% bovine serum albumin for 1 h followed by primary antibody incubation with rabbit polyclonal anti-beta amyloid 1-42 and polyclonal goat anti-green fluorescent protein. Antibodies were diluted 1:100 and 1:1000, respectively, and were incubated overnight. To visualize β-Amyloid antibodies, donkey anti-rabbit AlexaFluor® 555 secondary antibodies were used (diluted 1:400); to detect the GFP antibodies donkey anti-goat AlexaFluor® 647 secondary antibodies (diluted 1:400) were used. The samples were then mounted in Fluoromount-G™ with DAPI and analyzed with the BZ-9000 BIOREVO System (Keyence).
Herpes virus infections and specifically HSV-1 infections are correlated to intracellular R-Amyloid and tau-protein deposition in cells of the CNS in progression of Alzheimer's disease. […] Therefore, in a first step the infectability of SH-SYSY neuroblastoma cells with HHV-1 was tested. After incubation of SH-SYSY cultures with HHV-1 (MOI=8), an infection rate of >90% (qualitatively) was detected that came along with high intracellular β-Amyloid deposition.

| Compound | inhibition of HSV-1 by single anthocyanins (HSV-1) | viral inhibition of HHV-8 (in words) (HHV-8) | infected and β-Amyloid-positive cells [1] |
| --- | --- | --- | --- |
| OC[C@H]1O[C@@H](Oc2cc3c(O)cc(O)cc3[o+]c2-c2ccc(O)c(O)c2)[C@H](O)[C@@H](O)[C@@H]1O [C3G, Cyanidin 3-glucoside] | Neither C3G nor D3Gal or Pet3G inhibited HSV-1 |  |  |
| OC[C@H]1OC(Oc2cc3c(O)cc(O)cc3[o+]c2-c2cc(O)c(O)c(O)c2)[C@H](O)C(O)C1O (stereo partly drawn) [D3G, Delphinidin 3-glucoside] | decreased viral infectivity like Healthberry® 865 | identified as an active ingredient in Healthberry® 865 |  |
| OC[C@H]1O[C@@H](Oc2cc3c(O)cc(O)cc3[o+]c2-c2cc(O)c(O)c(O)c2)[C@H](O)[C@@H](O)[C@H]1O [D3Gal, Delphinidin 3-galactoside] | Neither C3G nor D3Gal or Pet3G inhibited HSV-1 |  |  |
| COc1cc(-c2[o+]c3cc(O)cc(O)c3cc2O[C@@H]2O[C@H](CO)[C@@H](O)[C@H](O)[C@H]2O)cc(O)c1O [Pet3G, Petunidin 3-glucoside] | Neither C3G nor D3Gal or Pet3G inhibited HSV-1 |  |  |
| maltodextrin |  |  | HHV-1-infected cells were mostly β-Amyloid-positive |
